# Experimental data taken from patent US20190145961A1, “PPAR AGONIST OR LXR AGONIST FOR USE IN THE TREATMENT OF SYSTEMIC LUPUS ERYTHEMATOSUS BY MODULATION OF LAP ACTIVITY” (Washington University, priority 2016, published 2019).
# Key:
# Type in all cases: cell-based
# [1] = system: Bone marrow-derived macrophages (BMM) from Rubicon−/− mice; assay: IL-10 production by Rubicon−/− bone marrow-derived macrophages co-cultured with apoptotic thymocytes (ELISA); conditions: 60 μM; Rubicon-deficient (LAP-deficient) BMM, apoptotic thymocytes 10:1, 18 hours co-culture, supernatant ELISA; versus control treatment (FIG. 1C)
# Procedure: (§1) Bone marrow-derived macrophages (BMM) were generated as previously described from Rubicon−/− mice and wild-type littermates. Macrophages were co-cultured with UV-irradiated apoptotic thymocytes (at a ratio of 10 apoptotic cells:1 macrophage) in the presence or absence of PPARγ agonists Rosiglitazone (ROS, 20 or 60 μM) or Tesaglitazar (TES, 6 or 20 μM). NT indicates no treatment. After 18 hours of co-culture, supernatants were collected and analyzed for IL-10 production via ELISA (FIG. 1A). […] Thus, PPAR agonists can be effective at restoring the LAP phenotype in LAP-deficient cells.
# Bone marrow-derived macrophages (BMM) were generated as previously described from Rubicon−/− mice and wild-type littermates. […] NT indicates no treatment. After 18 hours of co-culture, supernatants were collected and analyzed for IL-10 production via ELISA FIG. 1C). […] Thus, LXR agonists can be effective at restoring the LAP phenotype in LAP-deficient cells.
# Bone marrow-derived macrophages (BMDMs) were generated from bone marrow progenitors obtained from littermates. Freshly prepared bone marrow cells were cultured in DMEM medium supplemented with 10% heat-inactivated FCS, 2 mM L-glutamine, 10 mM HEPES buffer, 50 μg/ml penicillin, and non-essential amino acids in the presence of 20 ng/ml rmM-CSF (Peprotech) for 6 days. […]
# [2] = system: Bone marrow-derived macrophages (BMM) from LysM-Cre+ ATG7f/f mice; assay: IL-10 production by LysM-Cre+ ATG7f/f bone marrow-derived macrophages co-cultured with apoptotic thymocytes (ELISA); conditions: 20 μM; LysM-Cre+ ATG7f/f (LAP-deficient) BMM, apoptotic thymocytes 10:1, 18 hours co-culture, supernatant ELISA; versus control treatment (FIG. 1B)
# Procedure: as §1, with “LysM-Cre− ATG7f/f” for “Rubicon−/− mice”, “LysM-Cre+ ATG7f/f mice.” for “wild-type littermates.”, “PPARβ/δ agonist GW0742 (GW,” for “PPARγ agonists Rosiglitazone (ROS, 20 or 60 μM) or Tesaglitazar (TES, 6 or”, “1B).” for “1A).”
# Bone marrow-derived macrophages (BMDMs) were generated from bone marrow progenitors obtained from littermates. Freshly prepared bone marrow cells were cultured in DMEM medium supplemented with 10% heat-inactivated FCS, 2 mM L-glutamine, 10 mM HEPES buffer, 50 μg/ml penicillin, and non-essential amino acids in the presence of 20 ng/ml rmM-CSF (Peprotech) for 6 days. Nonadherent cells were removed on day 6, and adherent macrophages were detached from plates and re-plated for experimental use.
# Apoptosis was induced in wild-type C57Bl/6 thymocytes by UV irradiation (20 J/m^2). Thymocytes were washed twice with PBS prior to experimental use.
# [3] = system: bone marrow derived-macrophages from Rbcn+/+ and Rbcn−/− mice; assay: Cytokine production by Rbcn+/+ and Rbcn−/− bone marrow derived-macrophages stimulated with apoptotic thymocytes (Luminex); conditions: apoptotic thymocytes (1:10), 18 hours, supernatants
# Procedure: (§2) 10^6 bone marrow derived-macrophages from Rbcn+/+ and Rbcn−/− mice were stimulated with apoptotic thymocytes (1:10) in vitro for 18 hours, in the presence of GW501516 at different concentrations (+6 μM, ++20 μM, +++60 μM). Collected supernatants were assayed for cytokine production using Luminex technology.
# as §2, with “(++20” for “(+6 μM, ++20”
# Supernatants were collected from macrophages fed with apoptotic thymocytes for 24 hours. Cytokines released into supernatant were analyzed by Luminex technologies (Millipore). Serum was collected from animals was analyzed by Luminex technologies (Millipore).
structure (smiles),measurement,setting,value
CC(C)CC[C@@H](O)[C@@H](C)[C@H]1CC[C@H]2[C@@H]3CC=C4C[C@@H](O)CC[C@]4(C)[C@H]3CC[C@]12C [22(R)-hydroxycholesterol],IL-10 production,[1],increased IL-10 production
Cc1cc(SCc2sc(-c3ccc(C(F)(F)F)c(F)c3)nc2C)ccc1OCC(=O)O [GW0742],IL-10 production,[2],increased IL-10 production
Cc1cc(SCc2sc(-c3ccc(C(F)(F)F)cc3)nc2C)ccc1OCC(=O)O [GW501516],production of inflammatory cytokines in response to AT in vitro,"[3]; 6, 20, 60 μM, Luminex (FIG. 7)",reduces production of inflammatory cytokines
same,IL-10 production in response to apoptotic cells in LAP-deficient macrophages,"[3]; 20, 60 μM, Luminex (FIG. 8)",restores IL-10 production
